Laboratory results from PubChem BioAssay AID1259407 (Chemical Carcinogenesis Research Information System (CCRIS), 2018).
The source made the active and inactive calls. The rule behind the calls is not given here.

System: CCRIS mutagenicity, Ames/micronucleus/aberration tests
Assay: CCRIS mutagenicity studies

Compound: NN
- mutagenic call (End Point: IN VITRO CHROMOSOMAL ABERRATIONS, Test System: CHL CELLS, Metabolic Activation: NONE): active; positive (structural changes)
- mutagenic call (End Point: IN VITRO CHROMOSOMAL ABERRATIONS, Test System: CHL CELLS, Metabolic Activation: RAT, LIVER, S-9, SODIUM PHENOBARBITAL AND 5,6-BENZOFLAVONE): active; positive (structural changes)
- mutagenic call (Test System: AMES SALMONELLA TYPHIMURIUM, Strain/Indicator: G46, Metabolic Activation: HAMSTER, LIVER, HOMOGENATE, Method: PREINCUBATION): active; positive
- mutagenic call (Test System: AMES SALMONELLA TYPHIMURIUM, Strain/Indicator: G46, Metabolic Activation: MOUSE, LIVER, HOMOGENATE, Method: PREINCUBATION): active; positive
- mutagenic call (Test System: AMES SALMONELLA TYPHIMURIUM, Strain/Indicator: G46, Metabolic Activation: RAT, LIVER, HOMOGENATE, Method: PREINCUBATION): active; positive
- mutagenic call (Test System: AMES SALMONELLA TYPHIMURIUM, Strain/Indicator: TA98, Metabolic Activation: RAT LIVER S-9, PHENOBARBITAL AND BETA-NAPHTHOFLAVONE, Method: PREINCUBATION): inactive; negative
- mutagenic call (Test System: AMES SALMONELLA TYPHIMURIUM, Strain/Indicator: TA100, Metabolic Activation: RAT LIVER S-9, PHENOBARBITAL AND BETA-NAPHTHOFLAVONE, Method: PREINCUBATION): inactive; negative
- mutagenic call (Test System: AMES SALMONELLA TYPHIMURIUM, Strain/Indicator: TA102, Metabolic Activation: NONE, Method: PREINCUBATION): active; positive
- mutagenic call (Test System: AMES SALMONELLA TYPHIMURIUM, Strain/Indicator: TA102, Metabolic Activation: NONE, Method: STANDARD PLATE): inactive; negative
- mutagenic call (Test System: AMES SALMONELLA TYPHIMURIUM, Strain/Indicator: TA1535, Metabolic Activation: HAMSTER, LIVER, HOMOGENATE, Method: PREINCUBATION): active; positive
- mutagenic call (Test System: AMES SALMONELLA TYPHIMURIUM, Strain/Indicator: TA1535, Metabolic Activation: MOUSE, LIVER, HOMOGENATE, Method: PREINCUBATION): active; positive
- mutagenic call (Test System: AMES SALMONELLA TYPHIMURIUM, Strain/Indicator: TA1535, Metabolic Activation: NONE, Method: PREINCUBATION): active; positive
- mutagenic call (Test System: AMES SALMONELLA TYPHIMURIUM, Strain/Indicator: TA1535, Metabolic Activation: RAT LIVER S-9, PHENOBARBITAL AND BETA-NAPHTHOFLAVONE, Method: PREINCUBATION): active; positive
- mutagenic call (Test System: AMES SALMONELLA TYPHIMURIUM, Strain/Indicator: TA1535, Metabolic Activation: RAT, LIVER, HOMOGENATE, Method: PREINCUBATION): active; positive
- mutagenic call (Test System: AMES SALMONELLA TYPHIMURIUM, Strain/Indicator: TA1537, Metabolic Activation: NONE, Method: PREINCUBATION): inactive; negative
- mutagenic call (Test System: AMES SALMONELLA TYPHIMURIUM, Strain/Indicator: TA1537, Metabolic Activation: RAT LIVER S-9, PHENOBARBITAL AND BETA-NAPHTHOFLAVONE, Method: PREINCUBATION): inactive; negative
- mutagenic call (Test System: AMES SALMONELLA TYPHIMURIUM, Strain/Indicator: TA2638, Metabolic Activation: NONE, Method: STANDARD PLATE): inactive; negative
- mutagenic call (Test System: E. COLI, Strain/Indicator: WP2 (PKM101), Metabolic Activation: NONE, Method: STANDARD PLATE): active; positive
- mutagenic call (Test System: E. COLI, Strain/Indicator: WP2 UVRA (PKM101), Metabolic Activation: NONE, Method: STANDARD PLATE): active; positive
- mutagenic call (Test System: E. COLI, Strain/Indicator: WP2 UVRA, Metabolic Activation: NONE, Method: PREINCUBATION): active; positive
- mutagenic call (Test System: E. COLI, Strain/Indicator: WP2 UVRA, Metabolic Activation: RAT, LIVER, MICROSOMES, PHENOBARBITAL, Method: PREINCUBATION): active; positive
- mutagenic call (Test System: E.COLI, Strain/Indicator: WP2UVRA, Metabolic Activation: NONE, Method: PREINCUBATION): active; positive
- mutagenic call (Test System: E.COLI, Strain/Indicator: WP2UVRA, Metabolic Activation: RAT LIVER S-9, PHENOBARBITAL AND BETA-NAPHTHOFLAVONE, Method: PREINCUBATION): active; positive

Compound: CC12OOC1(C)c1c(ccc3ccccc13)O2 (stereo unspecified)
- mutagenic call (Test System: AMES SALMONELLA TYPHIMURIUM, Strain/Indicator: TA100, Metabolic Activation: NONE, Method: PREINCUBATION): inactive; negative

Compound: CN(C)CCCNc1c2ccccc2nc2cccc([N+](=O)[O-])c12
- mutagenic call (Test System: AMES SALMONELLA TYPHIMURIUM, Strain/Indicator: TA98(1,8-DNP6), Metabolic Activation: NONE, Method: STANDARD PLATE): active; positive
- mutagenic call (Test System: AMES SALMONELLA TYPHIMURIUM, Strain/Indicator: TA98(1,8-DNP6), Metabolic Activation: RAT, LIVER, S-9, Method: STANDARD PLATE): active; positive
- mutagenic call (Test System: AMES SALMONELLA TYPHIMURIUM, Strain/Indicator: TA98(NR), Metabolic Activation: NONE, Method: STANDARD PLATE): active; positive
- mutagenic call (Test System: AMES SALMONELLA TYPHIMURIUM, Strain/Indicator: TA98(NR), Metabolic Activation: RAT, LIVER, S-9, Method: STANDARD PLATE): active; positive
- mutagenic call (Test System: AMES SALMONELLA TYPHIMURIUM, Strain/Indicator: TA98, Metabolic Activation: NONE, Method: STANDARD PLATE): active; positive
- mutagenic call (Test System: AMES SALMONELLA TYPHIMURIUM, Strain/Indicator: TA98, Metabolic Activation: RAT, LIVER, S-9, Method: STANDARD PLATE): active; positive
- mutagenic call (Test System: AMES SALMONELLA TYPHIMURIUM, Strain/Indicator: TA100, Metabolic Activation: NONE, Method: STANDARD PLATE): active; positive
- mutagenic call (Test System: AMES SALMONELLA TYPHIMURIUM, Strain/Indicator: TA1535, Metabolic Activation: NONE, Method: STANDARD PLATE): inactive; negative
- mutagenic call (Test System: AMES SALMONELLA TYPHIMURIUM, Strain/Indicator: TA1537, Metabolic Activation: NONE, Method: STANDARD PLATE): active; positive
- mutagenic call (Test System: AMES SALMONELLA TYPHIMURIUM, Strain/Indicator: TA1537 PKM101, Metabolic Activation: NONE, Method: STANDARD PLATE): active; positive
- mutagenic call (Test System: AMES SALMONELLA TYPHIMURIUM, Strain/Indicator: TA1538, Metabolic Activation: NONE, Method: STANDARD PLATE): active; positive
- mutagenic call (Test System: CHINESE HAMSTER V-79, Strain/Indicator: V-79/6-THIOGUANINE, Metabolic Activation: NONE, Method: STANDARD PLATE): active; positive
- mutagenic call (Test System: CHINESE HAMSTER V-79, Strain/Indicator: V-79/OUABAIN, Metabolic Activation: NONE, Method: STANDARD PLATE): active; positive
- mutagenic call (Test System: Escherichia coli, Strain/Indicator: CC107 (G6 to G7 frameshifts), Metabolic Activation: None, Method: Modified preincubation): active; positive
- mutagenic call (Test System: Escherichia coli, Strain/Indicator: CC108 (G6 to G5 frameshifts), Metabolic Activation: None): active; positive
- mutagenic call (Test System: Escherichia coli, Strain/Indicator: CC109 (CG5 to CG4 frameshifts), Metabolic Activation: None, Method: Modified preincubation): active; positive
- mutagenic call (Test System: Escherichia coli, Strain/Indicator: CC111 (A7 to A6 frameshifts), Metabolic Activation: None, Method: Modified preincubation): inactive; negative

Compound: Nc1ccc2c(n1)[nH]c1ccccc12
- mutagenic call (Test System: AMES SALMONELLA TYPHIMURIUM, Strain/Indicator: TA98, Metabolic Activation: MONKEY, LIVER, S-9, Method: PREINCUBATION): active; positive
- mutagenic call (Test System: AMES SALMONELLA TYPHIMURIUM, Strain/Indicator: TA98, Metabolic Activation: RAT, LIVER, S-9, AROCLOR 1254, Method: PREINCUBATION): active; positive
- mutagenic call (Test System: AMES SALMONELLA TYPHIMURIUM, Strain/Indicator: TA100, Metabolic Activation: RAT, LIVER, S-9, AROCLOR 1254, Method: PREINCUBATION): active; positive
- mutagenic call (Test System: AMES SALMONELLA TYPHIMURIUM, Strain/Indicator: YG1019, Metabolic Activation: RAT LIVER S-9, AROCLOR, Method: PREINCUBATION): active; positive

Compound: O=c1[nH]c(=O)c2[nH]cnc2[nH]1
- mutagenic call (Test System: MOUSE LYMPHOMA, Strain/Indicator: L5178Y (TK+/TK-), Metabolic Activation: NONE, Method: SUSPENSION/PLATE): inactive; negative
